Laboratory results taken from patent publication US20250041302A1, “PROLYL HYDROXYLASE DOMAIN INHIBITOR FOR TREATING HEMORRHAGIC OR BURN SHOCK” (THE GOVERNMENT OF THE UNITED STATES, AS REPRESENTED BY THE …, priority 2022, published 2025).
“Also recorded” adds a separate entry of the source.

Assays:
[1] = tested on: rats with polytrauma and hemorrhage; assay: TXA in polytrauma/hemorrhage (FIG. 11); type: in vivo
Procedure: FIG. 11. The effect of anti-fibrinolytic agent (tranexamic acid; TXA) on polytrauma/hemorrhage. Single dose of TXA (10 mg/kg) given prior to trauma. (FIG. 11A) Prothrombin time. Values represent as means±SEM. *:p<0.05, significant difference between TXA and Vehicle; #:p<0.05, significant difference as compared with baseline. (FIG. 11B) Lung wet/dry weight ratio. TXA was given just before trauma (BT, red), just after trauma (AT, green) and 45 min after the end of trauma (yellow). Values represent as means±SEM. *:p<0.05, significant difference as compared with vehicle. (FIG. 11C) Acute lung injury. TXA given 45 min after trauma (and 15 min prior to resuscitation). Levels of platelet and leukocytes (neutrophils and monocytes) infiltration, and C5a and neutrophil elastase in the lung as compared with FWB. *:p<0.05, significant difference between FWB and FWB/TXA; #:p<0.05, significant difference as compared with Non-R; $:p<0.05, significant difference as compared with Non-R, FWB and FWB/TXA. Values represent as means±SEM. Non-R: Non-Resuscitation; FWB: Fresh Whole Blood; TXA: Tranexamic Acid; AT: After Trauma; BT: Before Trauma.
Briefly, Sprague-Dawley rats (350-450 gram) were anesthetized with isoflurane/100% oxygen through a nosecone and allowed to breathe spontaneously. Cannulas were placed in the left femoral artery and vein for measurement of arterial blood pressure and to obtain vascular access (blood draw and resuscitation and drug administration) respectively. Polytrauma was induced by laparotomy, crush injury to the small intestines, the […], and the right leg skeletal muscle and by fracture of the right femur. In detail, a midline incision was made through the abdominal skin and underlying muscle layers. A 10-cm section of small intestines was isolated just anterior to the cecum and run gently through a clamp covered with silastic tubing with a 2-mm distance between the clamps to cause a gentle crush injury. The right and medial lobes of the liver will receive three crushes to each lobe using the same clamp. The intestines and liver were replaced, and the abdominal incision was closed with sutures in two layers. To fracture the […], a modification of a 3-point impact device was used by dropping six stainless-steel balls (65 g each) stacked together, from 36 inches through a guide tube (1 inch internal diameter) to impact on a rounded aluminum blade resting on the mid-right femur with the right leg resting on two aluminum stands, one under the hip and one under the knee. A large hemostat (5 in tongs) was used to clamp the muscle of the right leg 10 times. The crush injury was intended to cause microvascular damage, as opposed to cutting, chopping, or mincing of the tissue, which would have led to uncontrolled hemorrhage. The polytrauma was performed about 10 min followed immediately by hemorrhage. Blood volume was estimated as 6% of body weight±0.77. The rats were bled to lower mean arterial pressure to 40 mmHg within 5 min and maintained at 40 mmHg until 40% of estimated blood volume is removed. Hemorrhage is usually completed within 30 min. Hemorrhage was then discontinued, and blood pressure and heart rate will be allowed to freely compensate.
TXA was given just before trauma (BT, red), just after trauma (AT, green) and 45 min after the end of trauma (yellow). […] TXA was given 45 min after trauma (15 min prior to resuscitation).

[2] = tested on: rats (polytrauma with 40% hemorrhage); assay: HOE140 on tissue wet/dry weight ratio after polytrauma with 40% hemorrhage and lactated Ringer's resuscitation (FIG. 12); type: in vivo; details: for wet/dry weight ratio, brain: HOE140 0.4 mg/kg i.v. bolus 45 min after trauma, tissues 1 hour after resuscitation, vehicle 4.735±0.024
Procedure: FIG. 12. The effect of bradykinin receptor antagonist (HOE140) on tissue water content/vascular permeability in the brain, lung and skeletal muscle after polytrauma/hemorrhage and resuscitation of lactate Ringer's fluid (20% of Blood Volume). HOE140 or vehicle were given intravenously in rats (n=4/group) at 45 min after trauma (15 min prior to resuscitation of lactate Ringer's fluid). The tissues were harvested 2 hours after trauma. Values represent as means±SD. *:p<0.05 as compared with vehicle.
HOE140 (0.4 mg/kg) was administrated as a bolus intravenously at 45 min after trauma (15 min prior to Lactated Ringer's fluid resuscitation). At 1 hour after resuscitation, the rats were euthanized and the tissues were harvested for wet weight, and then transferred into the oven at 60° C. for 14 days to be weighed as dry weight. The wet/dry ratio represented the water content of the tissue.
Icatibant (HOE140), which is a selective competitive antagonist at the bradykinin type 2 (B2) receptor, is a synthetic decapeptide with a structure similar to bradykinin, but with 5 nonproteinogenic amino acids. It consists of ten amino acids in the following sequence: H-D-Arg-Arg-Pro-Hyp-Gly-Thi-Ser-D-Tic-Oic-Arg-OH. HOE140 (0.4 mg/kg in lactate Ringer's fluid) was administrated as a bolus intravenously at 45 min after trauma (15 min prior to lactated Ringer's fluid resuscitation (20% of Blood Volume)). At 1 hour after resuscitation, the rats were euthanized and the tissues were harvested for wet weight, and then transferred into the oven at 60° C. for 14 days to be weighed as dry weight. The wet/dry ratio represented the water content of the tissue.

[3] = TXA 15 min prior to FWB resuscitation at 60 min after trauma
[4] = single dose TXA 10 mg/kg prior to trauma

SMILES	fluid movement into the lung (ALI, lung wet/dry weight ratio) ([1]; TXA 10 mg/kg just after trauma and 45 min after the end of trauma)	level of C5a in the lung as compared with FWB [1, 3]	level of neutrophil elastase in the lung as compared with FWB [1, 3]	platelet and leukocyte infiltration in the lung as compared with FWB [1, 3]	circulatory plasmin activity ([1]; current study)	prothrombin time (PT) at 30 min after trauma [1, 4]	prothrombin time (PT) at 120 min after trauma [1, 4]	tissue wet/dry weight ratio / tissue water content and vascular permeability ([2]; HOE140 0.4 mg/kg i.v.)	wet/dry weight ratio, brain ([2]; n=4)	wet/dry weight ratio, brain ([2]; n=4, 0.4 mg/kg)	tissue wet/dry weight ratio / tissue water content and vascular permeability ([2]; HOE140 0.4 mg/kg i.v., 0.4 mg/kg)	wet/dry weight ratio, traumatized skeletal muscle ([2]; HOE140 0.4 mg/kg i.v., n=4, vehicle 4.491±0.112)	wet/dry weight ratio, intestine ([2]; HOE140 0.4 mg/kg i.v., n=4, vehicle 4.528±0.112)
NC[C@H]1CC[C@H](C(=O)O)CC1 [TXA, tranexamic acid]	reduces fluid movement into the lung	significantly reduced	significantly reduced	significantly reduced	not significantly changed	delayed elevation of prothrombin time	significantly elevated	–	–	–	–	–	–
NC(N)=NCCC[C@@H](N)C(=O)N[C@@H](CCCN=C(N)N)C(=O)N1CCC[C@H]1C(=O)N1C[C@H](O)C[C@H]1C(=O)NCC(=O)N[C@@H](Cc1cccs1)C(=O)N[C@@H](CO)C(=O)N1Cc2ccccc2C[C@@H]1C(=O)N1[C@H](C(=O)N[C@@H](CCCN=C(N)N)C(=O)O)C[C@@H]2CCCC[C@@H]21 [Icatibant, H-D-Arg-Arg-Pro-Hyp-Gly-Thi-Ser-D-Tic-Oic-Arg-OH]	–	–	–	–	–	–	–	attenuated tissue wet/dry weight ratio	4.674±0.023	significantly declined	attenuated tissue wet/dry weight ratio; also recorded: reduced	4.247±0.176	4.399±0.090
